Results published in patent publication US20210403435A1, “HERBICIDAL COMPOUNDS” (SYNGENTA CROP PROTECTION AG, priority 2018, published 2021).
Where a name gives a salt, the structure may show the parent alone. Read-outs that look alike come from different tables or passages of the source.

Key:
Experiment in all cases: Post-emergence efficacy, glasshouse, evaluated after 13 days
Format in all cases: in vivo
[1] = system: Echinochloa crus-galli (ECHCG); conditions: Echinochloa crus-galli, 312 h, read-out: Control of weed species ECHCG (100=total damage to plant; 0=no damage to plant)
Procedure: (§1) Seeds of a variety of test species were sown in standard soil in pots. After cultivation for 14 days (post-emergence) under controlled conditions in a glasshouse (at 24/16° C., day/night; 14 hours light; 65% humidity), the plants were sprayed with an aqueous spray solution derived from the dissolution of the technical active ingredient formula (I) in a small amount of acetone and a special solvent and emulsifier mixture referred to as IF50 (11.12% Emulsogen EL360 TM+44.44% N-methylpyrrolidone+44.44% Dowanol DPM glycol ether), to create a 50 g/l solution which was then diluted to required concentration using 0.25% or 1% Empicol ESC70 (Sodium lauryl ether sulphate)+1% ammonium sulphate as diluent.
(§2) The test plants were then grown in a glasshouse under controlled conditions (at 24/16° C., day/night; 14 hours light; 65% humidity) and watered twice daily. After 13 days the test was evaluated (100=total damage to plant; 0=no damage to plant).
(§3) Ipomoea hederacea (IPOHE), Euphorbia heterophylla (EPHHL), Chenopodium album (CHEAL), Amaranthus palmeri (AMAPA), Lolium perenne (LOLPE), Digitaria sanguinalis (DIGSA), Eleusine indica (ELEIN), Echinochloa crus-galli (ECHCG), Setaria faberi (SETFA)

Eleusine indica (ELEIN) = conditions: Eleusine indica, 312 h, read-out: Control of weed species ELEIN (100=total damage to plant; 0=no damage to plant)
Procedure: as §1, §2, §3

[2] = system: Ipomoea hederacea (IPOHE); conditions: Ipomoea hederacea, 312 h, read-out: Control of weed species IPOHE (100=total damage to plant; 0=no damage to plant)
Procedure: as §1, §2, §3

[3] = system: Digitaria sanguinalis (DIGSA); conditions: Digitaria sanguinalis, 312 h, read-out: Control of weed species DIGSA (100=total damage to plant; 0=no damage to plant)
Procedure: as §1, §2, §3

Lolium perenne (LOLPE) = conditions: Lolium perenne, 312 h, read-out: Control of weed species LOLPE (100=total damage to plant; 0=no damage to plant)
Procedure: as §1, §2, §3

[4] = system: Chenopodium album (CHEAL); conditions: Chenopodium album, 312 h, read-out: Control of weed species CHEAL (100=total damage to plant; 0=no damage to plant)
Procedure: as §1, §2, §3

[5] = system: Euphorbia heterophylla (EPHHL); conditions: Euphorbia heterophylla, 312 h, read-out: Control of weed species EPHHL (100=total damage to plant; 0=no damage to plant)
Procedure: as §1, §2, §3

Setaria faberi (SETFA) = conditions: Setaria faberi, 312 h, read-out: Control of weed species SETFA (100=total damage to plant; 0=no damage to plant)
Procedure: as §1, §2, §3

[6] = system: Amaranthus palmeri (AMAPA); conditions: Amaranthus palmeri, 312 h, read-out: Control of weed species AMAPA (100=total damage to plant; 0=no damage to plant)
Procedure: as §1, §2, §3

[7] = post-emergence application, 500 g/Ha, evaluated after 13 days

| Structure (SMILES) | pest or weed control at 500 g/ha [1, 7] [%] | pest or weed control at 500 g/ha (Eleusine indica (ELEIN); [7]) [%] | pest or weed control at 500 g/ha [2, 7] [%] | pest or weed control at 500 g/ha [3, 7] [%] | pest or weed control at 500 g/ha (Lolium perenne (LOLPE); [7]) [%] | pest or weed control at 500 g/ha [4, 7] [%] | pest or weed control at 500 g/ha [5, 7] [%] | pest or weed control at 500 g/ha (Setaria faberi (SETFA); [7]) [%] | pest or weed control at 500 g/ha [6, 7] [%] | pest or weed control at 500 g/ha ([1]; post-emergence) [%] | pest or weed control at 500 g/ha (Eleusine indica (ELEIN); post-emergence) [%] | pest or weed control at 500 g/ha ([2]; post-emergence) [%] | pest or weed control at 500 g/ha ([3]; post-emergence) [%] | pest or weed control at 500 g/ha (Lolium perenne (LOLPE); post-emergence) [%] | pest or weed control at 500 g/ha ([4]; post-emergence) [%] | pest or weed control at 500 g/ha ([5]; post-emergence) [%] | pest or weed control at 500 g/ha (Setaria faberi (SETFA); post-emergence) [%] | pest or weed control at 500 g/ha ([6]; post-emergence) [%] |
| --- | --- | --- | --- | --- | --- | --- | --- | --- | --- | --- | --- | --- | --- | --- | --- | --- | --- | --- |
| C=CCNC(=O)c1cc[n+](CCS(=O)(=O)[O-])nc1 [Compound A18] | 90 | 90 | 70 | 80 | 70 | 90 | 70 | 50 | 100 | – | – | – | – | – | – | – | – | – |
| CC(O)CCNC(=O)c1cc[n+](CCC(=O)O)nc1 (stereo not drawn) [Compound A127] | 50 | 100 | 30 | 100 | 80 | 80 | 70 | 100 | 100 | – | – | – | – | – | – | – | – | – |
| O=C(O)CC[n+]1ccc(C(=O)NC2CSC2)cn1 [Compound A69] | 100 | 30 | 40 | 100 | 40 | 60 | 70 | 100 | 90 | – | – | – | – | – | – | – | – | – |
| O=C(O)CC[n+]1ccc(C(=O)NCCc2nccs2)cn1 [Compound A143] | 40 | 100 | 40 | 60 | 50 | 90 | 50 | 80 | 100 | – | – | – | – | – | – | – | – | – |
| O=C(O)CC[n+]1ccc(C(=O)N2CCCCC2)cn1 [Compound A24, 3-[4-(piperidine-1-carbonyl)pyridazin-1-ium-1-yl]propanoic acid trifluoroacetate] | – | – | – | – | – | – | – | – | – | 60 | 60 | 30 | 70 | 30 | 90 | 90 | 60 | 100 |
| O=C(NCc1ccc(F)cc1)c1cc[n+](CCS(=O)(=O)[O-])nc1 [Compound A23] | 70 | 60 | 50 | 60 | 20 | 70 | 60 | 70 | 100 | – | – | – | – | – | – | – | – | – |
| CCNC(=O)c1cc[n+](CCCC(=O)O)nc1 [Compound A74] | 60 | 80 | 40 | 80 | 80 | 90 | 60 | 70 | 100 | – | – | – | – | – | – | – | – | – |
| CNC(=O)c1cc[n+](CCCS(=O)(=O)[O-])nc1 [Compound A11] | 70 | 10 | 30 | 70 | 30 | 80 | 70 | 20 | 40 | – | – | – | – | – | – | – | – | – |
| CCNC(=O)c1cc[n+](CCNS(=O)(=O)[O-])nc1 [Compound A81] | 100 | 100 | 90 | 90 | 90 | 100 | 100 | 100 | 100 | – | – | – | – | – | – | – | – | – |
| O=C(O)CC[n+]1ccc(C(=O)NCC(F)(F)F)cn1 [Compound A47] | 100 | 20 | 90 | 100 | 30 | 90 | 100 | 90 | 100 | – | – | – | – | – | – | – | – | – |
| O=C(NCc1ccccc1)c1cc[n+](CCS(=O)(=O)[O-])nc1 [Compound A20] | 60 | 80 | 50 | 60 | 30 | 100 | 80 | 90 | 100 | – | – | – | – | – | – | – | – | – |
| CC(=O)CNC(=O)c1cc[n+](CCC(=O)O)nc1 [Compound A129] | 60 | 90 | 20 | 100 | 70 | 100 | 80 | 100 | 100 | – | – | – | – | – | – | – | – | – |
| O=C(O)CC[n+]1ccc(C(=O)N2CCCC2)cn1 [Compound A26] | 90 | 80 | 40 | 100 | 90 | 100 | 90 | 100 | 100 | – | – | – | – | – | – | – | – | – |
| O=C(O)CC[n+]1ccc(C(=O)NCCc2ncccn2)cn1 [Compound A145] | 60 | 100 | 30 | 100 | 70 | 100 | 0 | 80 | 100 | – | – | – | – | – | – | – | – | – |
| CC[S+]([O-])CCNC(=O)c1cc[n+](CCC(=O)O)nc1 (stereo not drawn) [Compound A117] | 60 | 50 | 40 | 100 | 50 | 80 | 90 | 90 | 100 | – | – | – | – | – | – | – | – | – |
| CCNC(=O)c1cc[n+](CCC(=O)O)nc1 [Compound A43] | 60 | 100 | 70 | 100 | 50 | 90 | 100 | 100 | 100 | – | – | – | – | – | – | – | – | – |
